In publication PMC5685639, “A trehalose biosynthetic enzyme doubles as an osmotic stress sensor to regulate bacterial morphogenesis” (PLoS Genetics, 2017):

Target: T1, OtsA (Arthrobacter alpinus, UniProt C7EZF1)
T1 construct: recombinant, expressed in and purified from E. coli; self-assembles into large networks
T1 sequence (C7EZF1 1-495): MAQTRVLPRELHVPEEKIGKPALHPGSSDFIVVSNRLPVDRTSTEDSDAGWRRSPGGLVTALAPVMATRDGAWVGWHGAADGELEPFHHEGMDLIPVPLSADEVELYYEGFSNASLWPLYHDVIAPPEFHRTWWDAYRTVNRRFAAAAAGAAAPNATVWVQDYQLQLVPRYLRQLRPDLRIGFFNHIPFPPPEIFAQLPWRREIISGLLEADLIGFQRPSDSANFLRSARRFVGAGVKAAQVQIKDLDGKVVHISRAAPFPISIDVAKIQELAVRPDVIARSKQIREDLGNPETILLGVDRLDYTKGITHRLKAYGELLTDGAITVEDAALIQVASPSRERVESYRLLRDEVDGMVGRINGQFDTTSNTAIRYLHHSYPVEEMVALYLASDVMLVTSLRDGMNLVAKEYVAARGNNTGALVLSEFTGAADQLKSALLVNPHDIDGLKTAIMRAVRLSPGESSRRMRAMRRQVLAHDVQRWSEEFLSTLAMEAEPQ
Assay: dynamic light scattering, self-assembly promoted by T6P
Format: binding
Conditions: 10 uM OtsA, 20 mM Tris HCl pH 7.5, 1 mM MgCl2, 1 M urea, 20 °C; up to 500 uM T6P; T6P is also the enzyme product

In the case of O=P(O)(O)OC[C@H]1O[C@H](O[C@H]2O[C@H](CO)[C@@H](O)[C@H](O)[C@H]2O)[C@H](O)[C@@H](O)[C@@H]1O [T6P, trehalose-6-phosphate], the “dynamic light scattering, self-assembly promoted by T6P” value is reported as “increasing concentrations of this metabolite had a dramatic effect on promoting the rate of OtsA polymerization”.
